# From patent US9127301B2, “Method of detecting the presence of polycyclic aromatic hydrocarbons” (BIOO SCIENTIFIC CORPORATION, priority 2012, dated 2015)
# What was measured:
# [1] = molecular target: T1, NDO/NahB/NahC (Pseudomonas putida, UniProt P0A110); experiment: Coupled naphthalene dioxygenase/NahB/NahC colorimetric assay; format: biochemical
# T1 construct: made in house; host or cells: E. coli JM109 (DE3) (pDTG141) for NDO; E. coli BL21 Star (DE3) for NahB and NahC
# Description: This disclosure relates to a method that uses microbial enzymes which degrade polyaromatic hydrocarbons to detect polycyclic aromatic hydrocarbons (PAH) in food and environmental samples. The first step in PAH degradation uses a PAH dioxygenase (PAHDO) enzyme such as naphthalene 1,2-dioxygenase (NDO) or biphenyl dioxygenase (BDO) to convert the PAH compound to PAH-(cis)-diol in an NADH- or NADPH-dependent manner.
# The first reaction is catalyzed by the 1,2-dihydroxy-1,2-dihydronaphthalene dehydrogenase enzyme (NahB), while the second reaction is catalyzed by the enzyme 1,2-dihydroxynaphthalene dioxygenase (NahC). These enzymes are both derived from the bacteria Pseudomonas putida.
# When these enzymes are used in succession, they function sequentially to convert colorless PAH compounds into a readily-detectable visible product class known as PAH chromene compounds.
# (§1) 2 tubes each of NahB, Nahc, and NDO enzymes (1.7 ml aliquotes) were thawed from −20 C along with 2.6 mM NADH in water. 2.5 ml each of the NahC and NahB enzymes were desalted using PD-10 gel filtration and buffer exchanged into 20 mM Tris-Cl pH 8.5 at the same time. Once all of the reagents were thawed and desalted, positive and negative naphthalene reaction were made containing 127 ul each of NahB, NahC, and NDO with 20 ppm naphthalene in dimethylformamide (negative reactions contained only equal amounts dimethylformamide) and 0.133 mM NADH final concentration with a final reaction volume of 405 ul. The reaction was run at 25° C. for 2 hours and the sample absorbance was measured using a BioTek Synergy2 plate reader in the 320-640 nm wavelength range. […] Reactions for all PAH's conducted in the same, or a very similar format, depending on the volume of sample in the reaction. FIG. 4 depicts a spectrophotometric graph showing the absorbance caused by the presence of naphthalene placed in the above NDO/NahB/NahC assay.
# [2] = molecular target: T1, NDO/NahB/NahC; experiment: Colorimetric detection of fluorene in spiked clam samples, NDO/NahB/NahC assay; format: biochemical; details: clam homogenate spiked to 80 ppm fluorene, dichloromethane extraction, 10 μl of 200 ppm DMF solution in 411 μl reaction, 2 hr, 25° C.
# Experimental: as §1
# Approximately 25 g of clams were homogenized using a blender; a 2 g sample of this 25 g preparation was spiked to 80 ppm fluorene. […] The reaction was run for 2 hr at 25° C. and then read on a BioTek Synergy2 plate reader from 320-640 nm. FIG. 5 depicts the absorbance of fluorene spiked clam samples in the NDO/NahB/NahC assay.
# T1 sequence (P0A110 whole entry): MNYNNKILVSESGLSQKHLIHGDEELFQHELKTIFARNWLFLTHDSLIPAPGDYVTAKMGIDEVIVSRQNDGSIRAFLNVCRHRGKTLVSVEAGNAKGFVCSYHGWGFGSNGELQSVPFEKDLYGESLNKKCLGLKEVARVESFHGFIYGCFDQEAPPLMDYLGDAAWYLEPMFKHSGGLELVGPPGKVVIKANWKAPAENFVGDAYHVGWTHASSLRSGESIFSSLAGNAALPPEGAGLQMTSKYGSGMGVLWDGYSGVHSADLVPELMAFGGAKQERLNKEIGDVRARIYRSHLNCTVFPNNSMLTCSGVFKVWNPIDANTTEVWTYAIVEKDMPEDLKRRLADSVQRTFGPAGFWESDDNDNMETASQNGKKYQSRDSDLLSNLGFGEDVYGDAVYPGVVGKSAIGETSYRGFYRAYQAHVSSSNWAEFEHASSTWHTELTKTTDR
# T1 sequence (P0A112 whole entry, further chain): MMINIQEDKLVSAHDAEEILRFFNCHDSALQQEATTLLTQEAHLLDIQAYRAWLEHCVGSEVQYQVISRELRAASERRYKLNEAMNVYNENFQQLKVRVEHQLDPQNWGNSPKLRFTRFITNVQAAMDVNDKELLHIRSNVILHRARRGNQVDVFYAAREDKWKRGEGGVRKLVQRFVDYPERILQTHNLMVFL
SMILES,detection of PAH compound by the colorimetric assay [1],absorbance at 390 nm versus buffer control or post-extraction spike [2],"absorbance at 370 nm versus negative control reaction ([1]; 20 ppm naphthalene in dimethylformamide, 0.133 mM NADH, 25° C., 2 hours)"
c1ccc2cc3ccccc3cc2c1 [anthracene],detect,–,–
c1ccc2c(c1)cc1ccc3cccc4ccc2c1c34 [benz(a)pyrene],detect,–,–
c1ccc(-c2ccccc2)cc1 [biphenyl],detect,–,–
c1ccc2c(c1)[nH]c1ccccc12 [carbazole],detect,–,–
c1ccc2c(c1)Cc1ccccc1-2 [fluorene],detect,slightly higher,–
c1ccc2ccccc2c1 [naphthalene],detect,–,significantly higher
c1ccc2c(c1)ccc1ccccc12 [phenanthrene],detect,–,–
